The text below walks through data of article PMC9101728, “Isolation and HPLC Quantitative Determination of 5α-Reductase Inhibitors from Tectona grandis L.f. Leaf Extract” (Molecules, 2022).

Several values for one entry are separate records, joined by “and”; a condition that tells them apart may be missing. Identical values can stand only once. Like-named read-outs stand apart in the source and are kept apart here. Bounds are passed on as bounds.

The target of test [1] is T1, 5α-reductase (Homo sapiens, UniProt P18405).
T1 sequence (P18405 1-259): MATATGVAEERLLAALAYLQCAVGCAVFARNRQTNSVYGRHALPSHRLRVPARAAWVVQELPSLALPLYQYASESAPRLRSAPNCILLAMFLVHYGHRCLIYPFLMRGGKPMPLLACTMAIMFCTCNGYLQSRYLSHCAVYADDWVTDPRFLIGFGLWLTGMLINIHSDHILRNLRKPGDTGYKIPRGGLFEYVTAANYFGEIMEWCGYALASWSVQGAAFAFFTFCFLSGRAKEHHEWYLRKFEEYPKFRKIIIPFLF
Put plainly: Enzymatic 5α-reductase inhibition assay (conversion of testosterone to DHT, LC-MS), crude enzyme from LNCaP cells. Type of test: biochemical. To be noted: for IC50: isolated compounds, LNCaP cell crude enzyme, mean ± SD of triplicate, read-out: IC50 against 5α-reductase (converted); for 5α-reductase inhibitory activity (in words): qualitative statement. More on the design: adding 80 µL of homogenized crude enzyme (equivalent to 75 µg protein); host or cells: LNCaP cells, sonicated homogenate used as crude enzyme. As for the experimental part:
The steroid 5α-reductase inhibitory activity of samples on the conversion of testosterone to DHT was determined using LNCaP cell as a source of enzyme.
5α-reductase was prepared as a crude enzyme from the androgen-dependent LNCaP cells (ATCC® CRL-1740^TM) using the procedure as described by Fachrunniza et al., which was modified from Srivilai et al.. Briefly, the LNCaP cells were cultured in a 175 cm^2 culture flask at 37 °C under a 5% CO2 humidified atmosphere and cultured until reaching approximately 80% confluency. The medium was removed and the cells were rinsed with tris-HCl buffer solution, pH 7.4 (containing 10 mM Tris-HCl buffer; 50 mM KCl; 1 mM EDTA; 0.5 mM phenylmethanesulfonyl fluoride). The cells were then scraped off and centrifuged at 1900× g for 10 min. The cell pellets were collected and re-suspended in tris-HCl buffer solution pH 7.4 to a concentration of ≥9 × 10^7 cells/mL and the resultant cell pellets were kept in an ice bath and homogenized using a sonication probe. The total protein content in the homogenized crude enzyme was not less than 75 µg protein equivalent in this 5α-reductase inhibitory assay, which was measured using the Pierce bicinchoninic acid (BCA) protein assay (Pierce, Rockford, IL, USA).
The in vitro inhibitory activity of the samples against the conversion of testosterone to DHT by 5α-reductase was carried out according to the method described by Srivilai et al.. The DHT formation after the enzymatic reaction was determined using liquid chromatography mass spectrometry (LC-MS) to measure 5α-reductase activity. […] In the assay, the reaction was performed in U-shaped 96-deep-well plates covered by well-cap mats to create a solution that contained 10 µL of the tested sample dissolved in dimethyl sulfoxide (DMSO), 20 µL of testosterone (34.7 µM in propylene glycol and water), and 50 µL of β-nicotinamide adenine dinucleotide phosphate (NADPH, 1 mM in tris-HCl buffer pH 7.4). The enzymatic reaction was started by adding 80 µL of homogenized crude enzyme (equivalent to 75 µg protein), and the final volume was adjusted to 200 µL by adding 40 µL of tris-HCl buffer pH 7.4. The reaction was maintained in a water bath with a shaker at 37 °C for 60 min and then the reaction was stopped by adding 300 µL of hydroxylamine hydrochloride (HM) (10 mg/mL in 80% v/v ethanol). The solution was then incubated for another 60 min at 60 °C to completely derivatize all the DHT that was produced. After incubation, the solution was centrifuged at 1700× g for 10 min and the supernatant was collected for quantitated DHT production by LC-MS. Two control groups, C0 and C60, were prepared with all the solutions, including 10 µL of DMSO, but no test sample. Control group C0 was stopped (by adding HM) before the enzymatic incubation at 0 min, while the control group C60 continued with the enzymatic reaction and was stopped after 60 min of incubation. The DHT production was determined using LC-MS. The inhibition of tested sample was determined by measuring the area under the curve (AUC) of extracted ion chromatogram (EIC) of derivatized-DHT (m/z [M + H]^+, 306.2428) which was used to calculate the enzymatic reaction inhibition by the following Equation (1):(1) 5α-reductase inhibitory activity (%)= [1 −AUC of sample−AUC of C0/AUC of C60 −AUC of C0] ×100

For test [2], the target named is T1, 5α-reductase. To be noted: read-out: IC50 against 5α-reductase; positive controls; same assay system; cited from earlier work.

The IC50 is the concentration that inhibits the measured activity by half. With `CC1=C(CC/C(C)=C/C(=O)O)[C@@]2(C)CCCC(C)(C)[C@@H]2CC1` [Compound 1, (+)-eperua-8,13-dien-15-oic acid], in test [1], the IC50 was 14.2 µM and the “5α-reductase inhibitory activity (in words)” value is “potent 5α-reductase inhibitory activity”.

In the case of `CC1=CC[C@H]2C(C)(C)CCC[C@]2(C)[C@H]1CC/C(C)=C/C(=O)O` [Compound 2, (+)-eperua-7,13-dien-15-oic acid], in test [1], the half-inhibitory concentration (IC50) was 14.6 µM and the “5α-reductase inhibitory activity (in words)” value was “potent 5α-reductase inhibitory activity”.

On to `C=C(C)[C@@H]1CC[C@]2(C)CC[C@]3(C)[C@H](CC[C@@H]4[C@@]5(C)CC[C@H](O)C(C)(C)[C@@H]5CC[C@]43C)[C@@H]12` [Compound 3, lupeol], for which, in test [1], the IC50 was above 400 µM and the “5α-reductase inhibitory activity (in words)” value is on record as “weak inhibitory activity”.

For `CC(C)(C)NC(=O)[C@H]1CC[C@H]2[C@@H]3CC[C@H]4NC(=O)C=C[C@]4(C)[C@H]3CC[C@]12C` [Finasteride], in test [2], the half-inhibitory concentration (IC50) was 0.752 µM and 0.73 µM.
